From PMC8826726, “Selective Toxicity of Secondary Metabolites from the Entomopathogenic Bacterium Photorhabdus luminescens sonorensis against Selected Plant Parasitic Nematodes of the Tylenchina Suborder” (Microbiology Spectrum, 2022)
Values after ≈ are worked out from the molar mass of the structure shown.

Key:
[1] = tested on: Meloidogyne incognita J2 juveniles; assay: microbe, parasite or virus in culture; conditions: Meloidogyne incognita, 24 h
Source text: (§1) Only soil inhabiting (free-living or infective) stages of target and non-target nematode species were considered in the present study. All nematode cultures (except T. semipenetrans) were maintained in the Stock laboratory (University of Arizona). M. incognita was reared in planta using susceptible tomato plants (cv. Roma VF; seedlings with five or six true leaves; courtesy of Dr. J. Brown, University of Arizona). Eggs of M. incognita were extracted from infected tomato plant roots, and J2 were collected after hatching, following the procedures of Atamian et al. ([50]). T. semipenetrans was isolated from infested lemon orchards at the Yuma Agricultural Center, University of Arizona (Yuma, AZ, USA). Eggs of T. semipenetrans were extracted from infected lemon tree roots using the procedures of El-Borai et al. ([51]), and J2 were collected using the same procedure as that described for M. incognita.
(§2) Twelve-well tissue culture plates were used as the experimental arena. For each of the tested nematode species, an inoculum of 100 nematodes, suspended in 20 μL distilled water, was added to each well. […] For PPA (Enamine) and indole (Alfa Aesar), 13 incremental concentrations were tested ranging from 10 to 400 μg/mL in 1 mL of distilled water (DMSO ≤ 1%; vol/vol). […] Distilled water with 1% DMSO was used as the negative control. To measure the combined nematicidal effects of the three SMs, equal concentrations of two or three SMs were mixed in 1:1 or 1:1:1 mixture. For example, a 20 μg/mL solution of a two-SM mixture contained 20 μg from metabolite A and 20 μg metabolite B, dissolved in 1 mL distilled water. Individual or combined SMs from 10 μg/mL to 200 μg/mL (in 20 μg/ml increments) were prepared in distilled water (DMSO ≤ 1%; vol/vol) and used for the bioassays.
(§3) The well plates were covered with their lids and incubated at 25°C in the dark. For the targeted nematode species, nematicidal activity was recorded at 24 h, 48 h, and 72 h after initial exposure to the individual SMs. For the non-target species, data were only recorded at 24 h after initial exposure to the individual SMs. For SM mixtures, mortality was recorded 24 h after initial exposure of the targeted nematode species. Nematodes were probed with a needle to assess if they were alive, dead, or paralyzed. […] Those nematodes that resumed activity upon probing were considered to suffer from temporary paralysis (impaired motility). Paralyzed nematodes were rinsed at least three times in distilled water and held for an additional 24 h to check for their recovery from temporarily paralysis. […] Experiments were repeated at least three times per treatment for each concentration tested.
(§4) For the toxicity data visualization, the relationship between percent mortality or temporary paralysis and metabolite concentration were described by a sigmoidal curve, which was fitted by the logistical function using the statistical software package SigmaPlot for Windows, version 14.0 (Systat Software Inc.). […] Concentration-response data of single metabolites or SM mixtures were pooled for each concentration and subjected to probit regression analysis using the Polo Plus program (LeOra Software). The LC or EC values, along with the corresponding 95% confidence intervals, were estimated for each single SM or SM mixture at each exposure time, depending on the experimental setting.

[2] = tested on: Tylenchulus semipenetrans J2 juveniles; assay: microbe, parasite or virus in culture; conditions: Tylenchulus semipenetrans, 24 h
Source text: as §1, §2, §3, §4

H. bacteriophora = assay: In vitro nematistatic assay (temporary paralysis), non-target species; assay type: cell-based; conditions: Heterorhabditis bacteriophora; reversible paralysis, 24 h exposure
[3] = tested on: SF-268 (central nervous system glioma); assay: MTT cytotoxicity assay; assay type: cell-based, human; conditions: tested at 50, 100, 200 μM, data not shown
Experimental: (§5) The non-cancerous HFF cells (human foreskin cells) and three human cancer cell lines, NCI-H460 (non-small cell lung cancer), SF-268 (central nervous system glioma), and MCF-7 (breast cancer) were used to evaluate the in vitro cytotoxicity of the isolated Photorhabdus SMs. The MTT (3-(4,5-dimethylthiazol-2-yl)-2,5-diphenyltetrazolium bromide) colorimetric method ([54]) was used with doxorubicin as the positive control, and DMSO as the negative control. Photorhabdus SMs were tested at 50, 100, and 200 μM concentrations, and the assays were repeated three times.

MCF-7 (breast cancer) = assay: MTT cytotoxicity assay; assay type: cell-based, human; conditions: tested at 50, 100, 200 μM, data not shown
Experimental: as §5

[4] = tested on: NCI-H460 (non-small cell lung cancer); assay: MTT cytotoxicity assay; assay type: cell-based, human; conditions: tested at 50, 100, 200 μM, data not shown
Experimental: as §5

Meloidogyne incognita J2 = assay: Recovery from indole-induced temporary paralysis after rinsing with water; assay type: cell-based

Structure (SMILES): c1ccc2[nH]ccc2c1 [Indole, indole]
- LC50 [1]: 307 µg/mL (≈ 2.62 mM)
- LC50 [2]: 388 µg/mL (≈ 3.31 mM)
- EC50 (H. bacteriophora): > 400 µg/mL
- In vitro cytotoxicity: none even at the highest concentration tested [3]: > 200 µM
- In vitro cytotoxicity: none even at the highest concentration tested (MCF-7 (breast cancer)): > 200 µM
- In vitro cytotoxicity: none even at the highest concentration tested [4]: > 200 µM
- Recovery after 24 h in water (Meloidogyne incognita J2; 60 μg/mL, 24-h exposure to treatment): 95.9%
- Recovery after 24 h in water (Meloidogyne incognita J2; 60 μg/mL, 72-h exposure to treatment): 95.5%
- Recovery after 24 h in water (Meloidogyne incognita J2; 80 μg/mL, 24-h exposure to treatment): 94.9%
- Recovery after 24 h in water (Meloidogyne incognita J2; 80 μg/mL, 72-h exposure to treatment): 92.8%
- M. incognita regaining baseline mobility during a recovery period of 24 h (Meloidogyne incognita J2; regardless of length of prior exposure (24 h to 72 h)): over 90%
